Results from PubChem BioAssay AID296 (DTP/NCI, 2004).
Several values for one entry are separate records, joined by “and”; a condition that tells them apart may be missing. Equal values may be shown once. Records with an inconclusive call do not appear.

Tested on: MX-1 breast xenograft, nude mice, tumor weight T/C
Test: NCI In Vivo Anticancer Drug Screen. Data for tumor model Human Mammary Carcinoma MX-1 Xenograft (intrarenal inoculation) in NU/NU Swiss (nude) mice
Conditions: endpoint: mean tumor weight change, higher = larger tumour
How it was run: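 Mice carrying the implanted tumor receive either test agent or vehicle. Tumor size or survival is then recorded for both groups. Results are stated as the treated-to-control quotient.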

[1] = dose: 25.0 mg/kg/injection, schedule: Q01DX010 (sc), vehicle: saline
[2] = dose: 50.0 mg/kg/injection, schedule: Q01DX010 (sc), vehicle: saline
[3] = dose: 100.0 mg/kg/injection, schedule: Q01DX010 (sc), vehicle: saline
[4] = dose: 150.0 mg/kg/injection, schedule: Q04DX003 (sc), vehicle: saline
[5] = dose: 600.0 mg/kg/injection, schedule: Q04DX003 (sc), vehicle: Klucel (hydroxypropylcellulose) (HPC)
[6] = dose: 300.0 mg/kg/injection, schedule: Q04DX003 (sc), vehicle: Klucel (hydroxypropylcellulose) (HPC)
[7] = dose: 1200.0 mg/kg/injection, schedule: Q04DX003 (sc), vehicle: Klucel (hydroxypropylcellulose) (HPC)
[8] = dose: 2400.0 mg/kg/injection, schedule: Q04DX003 (sc), vehicle: Klucel (hydroxypropylcellulose) (HPC)
[9] = dose: 12.5 mg/kg/injection, schedule: Q04DX003 (sc), vehicle: saline
[10] = dose: 25.0 mg/kg/injection, schedule: Q04DX003 (sc), vehicle: saline
[11] = dose: 200.0 mg/kg/injection, schedule: Q04DX003 (sc), vehicle: water
[12] = dose: 400.0 mg/kg/injection, schedule: Q04DX003 (sc), vehicle: water

CC1CN1P1(N2CC2C)=NP(N2CC2C)(N2CC2C)=NP(N2CC2C)(N2CC2C)=N1 (centres undefined)
T/C (dose: 18.75 mg/kg/injection, schedule: Q01DX010 (sc), vehicle: saline): 70 % of control
T/C [1]: 50 % of control
T/C (dose: 37.5 mg/kg/injection, schedule: Q01DX010 (sc), vehicle: saline): 41 % of control
T/C [2]: 26 % of control
T/C (dose: 75.0 mg/kg/injection, schedule: Q01DX010 (sc), vehicle: saline): 4 % of control
T/C [3]: -7 % of control
T/C [4]: 13 % of control

O=S(=O)(SC(S(=O)(=O)c1ccccc1)S(=O)(=O)c1ccccc1)c1ccccc1
T/C (dose: 100.0 mg/kg/injection, schedule: Q04DX003 (sc), vehicle: Klucel (hydroxypropylcellulose) (HPC)): 68 % of control
T/C (dose: 200.0 mg/kg/injection, schedule: Q04DX003 (sc), vehicle: Klucel (hydroxypropylcellulose) (HPC)): 42 % of control
T/C (dose: 400.0 mg/kg/injection, schedule: Q04DX003 (sc), vehicle: Klucel (hydroxypropylcellulose) (HPC)): 84 % of control
T/C [5]: 100 % of control
T/C (dose: 800.0 mg/kg/injection, schedule: Q04DX003 (sc), vehicle: Klucel (hydroxypropylcellulose) (HPC)): 87 % of control and 98 % of control
T/C (dose: 1600.0 mg/kg/injection, schedule: Q04DX003 (sc), vehicle: Klucel (hydroxypropylcellulose) (HPC)): 112 % of control

C[C@@]1(CO)[C@H](O)CC[C@@]2(C)[C@H]1CC[C@H]1C[C@@H]3C[C@@]12CC[C@@]3(O)COC(=O)CN
T/C (dose: 125.0 micrograms/kg/injection, schedule: Q04DX003 (sc), vehicle: saline + alcohol): 102 % of control
T/C (dose: 250.0 micrograms/kg/injection, schedule: Q04DX003 (sc), vehicle: saline + alcohol): 34 % of control
T/C (dose: 500.0 micrograms/kg/injection, schedule: Q04DX003 (sc), vehicle: saline + alcohol): 55 % of control
T/C (dose: 1000.0 micrograms/kg/injection, schedule: Q04DX003 (sc), vehicle: saline + alcohol): 70 % of control

O=C(O)CCCc1ccc(N(CCCl)CCCl)cc1
T/C (dose: 4.0 mg/kg/injection, schedule: Q01DX010 (sc), vehicle: saline with Tween-80): -6 % of control
T/C (dose: 16.0 mg/kg/injection, schedule: Q01DX010 (sc), vehicle: saline with Tween-80): -65 % of control

COc1ccc2c(c1[N+](=O)[O-])CC[C@@H]1[C@@H]2CC[C@]2(C)C(=O)CC[C@@H]12
T/C (dose: 150.0 mg/kg/injection, schedule: Q04DX003 (ip), vehicle: saline with Tween-80): 90 % of control
T/C (dose: 300.0 mg/kg/injection, schedule: Q04DX003 (ip), vehicle: saline with Tween-80): 111 % of control
T/C (dose: 1200.0 mg/kg/injection, schedule: Q04DX003 (ip), vehicle: saline with Tween-80): 102 % of control

C/C(=C\c1ccccc1)[N+](=O)[O-]
T/C (dose: 25.0 mg/kg/injection, schedule: Q01DX010 (sc), vehicle: Klucel (hydroxypropylcellulose) (HPC)): 38 % of control
T/C (dose: 50.0 mg/kg/injection, schedule: Q01DX010 (sc), vehicle: Klucel (hydroxypropylcellulose) (HPC)): 88 % of control
T/C (dose: 100.0 mg/kg/injection, schedule: Q01DX010 (sc), vehicle: Klucel (hydroxypropylcellulose) (HPC)): 45 % of control and 53 % of control
T/C (dose: 200.0 mg/kg/injection, schedule: Q01DX010 (sc), vehicle: Klucel (hydroxypropylcellulose) (HPC)): 55 % of control and 59 % of control

Cc1c(-c2ccc(C3CCCCC3)cc2)nc2ccc(F)cc2c1C(=O)O
T/C [6]: 86 % of control
T/C [5]: 75 % of control
T/C [7]: 80 % of control
T/C [8]: 96 % of control

[Cl][Pt+2][Cl].[NH-]CC1(C[NH-])CCC1
T/C (dose: 3.12 mg/kg/injection, schedule: Q04DX003 (sc), vehicle: suspension in saline): 48 % of control
T/C (dose: 6.25 mg/kg/injection, schedule: Q04DX003 (sc), vehicle: saline): 6 % of control
T/C (dose: 6.25 mg/kg/injection, schedule: Q04DX003 (sc), vehicle: suspension in saline): 19 % of control and 29 % of control
T/C (dose: 12.5 mg/kg/injection, schedule: Q04DX003 (sc), vehicle: suspension in saline): 6 % of control and 16 % of control
T/C (dose: 25.0 mg/kg/injection, schedule: Q04DX003 (sc), vehicle: suspension in saline): -74 % of control and -54 % of control

CNc1nc2c(N)ncnc2n1C1OC(CO)C(O)C1O (centres undefined)
T/C [9]: 111 % of control
T/C [10]: 92 % of control
T/C (dose: 50.0 mg/kg/injection, schedule: Q04DX003 (sc), vehicle: saline): 60 % of control

C[C@]12C=CC(=O)C=C1CC[C@@H]1[C@@H]2C(=O)C[C@@]2(C)[C@H]1CC[C@]2(O)C(=O)CO
T/C [6]: 40 % of control
T/C [5]: 73 % of control
T/C [7]: 44 % of control
T/C [8]: 29 % of control

Oc1cc2c3c(c1)c1cc4c(cc1c[n+]3CC2)OCO4
T/C [11]: 72 % of control
T/C [12]: 100 % of control
T/C (dose: 1600.0 mg/kg/injection, schedule: Q04DX003 (sc), vehicle: water): 72 % of control

CC(=O)NC(C=O)OCC=O (centres undefined)
T/C (dose: 100.0 mg/kg/injection, schedule: Q04DX003 (sc), vehicle: water): 108 % of control
T/C [11]: 72 % of control
T/C [12]: 91 % of control

C[CH2][Pb]([CH2]C)([CH2]C)[O]C(=O)COc1ccccc1
T/C (dose: 4.5 mg/kg/injection, schedule: Q04DX003 (sc), vehicle: saline with Tween-80): 66 % of control
T/C (dose: 9.0 mg/kg/injection, schedule: Q04DX003 (sc), vehicle: saline with Tween-80): 112 % of control
T/C (dose: 18.0 mg/kg/injection, schedule: Q04DX003 (sc), vehicle: saline with Tween-80): 79 % of control

COC1=C(OC)C(=O)C(C/C=C(\C)CC/C=C(\C)CC/C=C(\C)CC/C=C(\C)CC/C=C(\C)CC/C=C(\C)CC/C=C(\C)CC/C=C(\C)CC/C=C(\C)CCC=C(C)C)=C(C)C1=O
T/C (dose: 400.0 mg/kg/injection, schedule: Q01DX010 (sc), vehicle: saline with Tween-80): 153 % of control
T/C (dose: 800.0 mg/kg/injection, schedule: Q01DX010 (sc), vehicle: saline with Tween-80): 118 % of control

[CH3][Sn]([CH3])([Cl])[c]1cc[c]([Sn]([CH3])([CH3])[Cl])cc1
T/C (dose: 1.25 mg/kg/injection, schedule: Q04DX003 (ip), vehicle: saline): 98 % of control
T/C (dose: 2.5 mg/kg/injection, schedule: Q04DX003 (ip), vehicle: saline): 101 % of control
T/C (dose: 5.0 mg/kg/injection, schedule: Q04DX003 (ip), vehicle: saline): 89 % of control

C[PH+](C)C.C[PH+](C)C.[Au]
T/C (dose: 5.0 mg/kg/injection, schedule: Q04DX003 (sc), vehicle: suspension in saline): 157 % of control
T/C (dose: 10.0 mg/kg/injection, schedule: Q04DX003 (sc), vehicle: suspension in saline): 156 % of control
T/C (dose: 20.0 mg/kg/injection, schedule: Q04DX003 (sc), vehicle: suspension in saline): 160 % of control

CN(CO)c1nc(N(C)CO)nc(N(C)CO)n1
T/C (dose: 12.5 mg/kg/injection, schedule: Q01DX010 (sc), vehicle: saline): 157 % of control
T/C [1]: 55 % of control
T/C [2]: 4 % of control
T/C [3]: -81 % of control
T/C (dose: 100.0 mg/kg/injection, schedule: Q01DX010 (sc), vehicle: suspension in saline): -100 % of control
T/C [4]: -80 % of control and -77 % of control and -57 % of control
T/C (dose: 200.0 mg/kg/injection, schedule: Q01DX010 (sc), vehicle: suspension in saline): -100 % of control
T/C (dose: 300.0 mg/kg/injection, schedule: Q04DX003 (sc), vehicle: saline): -85 % of control and -84 % of control
T/C (dose: 300.0 mg/kg/injection, schedule: Q04DX003 (sc), vehicle: suspension in saline): -87 % of control and -100 % of control

O=c1[nH]cnc2c1ccn2C1OC(CO)C(O)C1O (centres undefined)
T/C [9]: 57 % of control
T/C [10]: 71 % of control

COc1c(O)c2c(c3cc(C(=O)N4CCc5c4c(O)c(OC)c4[nH]c(C(=O)N6CC7CC78C6=CC(=O)c6[nH]cc(C)c68)cc54)[nH]c13)CCN2C(N)=O (centres undefined)
T/C (dose: 2.5 mg/kg/injection, schedule: Q01DX010 (sc), vehicle: DMSO): 37 % of control
T/C (dose: 5.0 mg/kg/injection, schedule: Q01DX010 (sc), vehicle: DMSO): 82 % of control
T/C (dose: 10.0 mg/kg/injection, schedule: Q01DX010 (sc), vehicle: DMSO): 1 % of control
T/C (dose: 6.25 micrograms/kg/injection, schedule: Q01DX010 (sc), vehicle: DMSO): 63 % of control
T/C (dose: 12.5 micrograms/kg/injection, schedule: Q01DX010 (sc), vehicle: DMSO): 53 % of control
T/C (dose: 25.0 micrograms/kg/injection, schedule: Q01DX010 (sc), vehicle: DMSO): 68 % of control
T/C (dose: 50.0 micrograms/kg/injection, schedule: Q01DX010 (sc), vehicle: DMSO): 90 % of control
T/C (dose: 100.0 micrograms/kg/injection, schedule: Q01DX010 (sc), vehicle: DMSO): 85 % of control
T/C (dose: 400.0 micrograms/kg/injection, schedule: Q01DX010 (sc), vehicle: DMSO): 117 % of control
